How the values were obtained:
[1] = Bleaching of dye solutions (degree of dye removal); conditions: activator 2 g/l
Method: The bleaching solution was prepared as follows: […] Bleach activator 2 g/l […] Total volume 25 ml pH 3 was obtained with acetic acid; pH 7 was obtained with sodium dihydrogen phosphate (0.1M) and sodium hydroxide (0.1M); pH 10 was obtained using sodium carbonate. […] The degree of dye removal or bleaching (R %) was calculated using the following equation: % R=1-(A2/A1)×100 […]

[2] = test system: E. Coli; test: E. Coli cultures exposed 45 minutes at 37° C., plate counts; type: cell-based; conditions: peroxide 5 g/l and/or ASP 1 3 g/l; for Counts recorded: 45 minutes at 37° C., controls 40×10^8 (time zero), 37×10^8 (45 minutes), average of three; for reduction in bacteria count / kill: 45 minutes treatment at 37° C.
Method: Cultures of E. Coli in Ringer's saline were exposed to various conditions for 45 minutes at 37° C. These were then serially diluted (eight 10-fold dilutions) and plated onto nutrient agar (treatments were done in triplicate to ensure reproducibility), and five tests were done overall as shown below. Initial E. Coli concentration was approximately 5×10^9/ml and cultures were grown in nutrient broth overnight before being centrifuged and then re-suspended in saline. A E. Coli control-time zero. B E. Coli control-time 45 minutes C E. Coli plus peroxide at 5 g/l for 45 minutes D E. Coli plus […] at 3 g/l for 45 minutes E E. Coli plus peroxide of 5 g/l plus […] (3 g/l) for 45 minutes Plates were observed and counted after 2 days incubation at 37° C.

Row | Compound | degree of dye removal % R ([1]; pH 3, 20° C., 3 hours) | degree of dye removal % R ([1]; pH 3, 20° C., 24 hours) | degree of dye removal % R ([1]; pH 7, 20 C., 3 hours) | degree of dye removal % R ([1]; pH 7, 20 C., 24 hours) | degree of dye removal % R ([1]; pH 10, 20°C., 3 hours) | degree of dye removal % R ([1]; pH 10, 20°C., 24 hours) | Counts recorded [2] | reduction in bacteria count / kill [2]
1 | OO [H2O2, Hydrogen peroxide] | 3.3% | 85% | 2.7% | 7.1% | 11.3% | 24.8% | 12.9×10^8 colony forming units ml^−1 | ~66%
2 | NC(=O)S(=O)(=O)O [ASP 1] |  |  |  |  |  |  | 7.9×10^8 colony forming units ml^−1 | about 80%

Reference: patent US20040055092A1, “Use of percarbamic acids and diacyl percarbamates and precursors therefor” (priority 2000, published 2004)
